Each compound was assayed against T1, IP receptor (Homo sapiens, UniProt P43119) (assay: cAMP accumulation in CHO cells stably expressing the IP receptor (CHO-IP), Perkin Elmer AlphaScreen assay). Settings: agonist activity, 1 hour at room temperature.
T1 construct: expressed in transfected cells; host or cells: CHO cells stably expressing the IP receptor (CHO-IP)
Type: cell-based
Method: Activity of compounds at the IP receptor (IP receptor) is assessed by measuring cAMP accumulation in CHO cells stably expressing the IP receptor (CHO-IP) using the Perkin Elmer AlphaScreen assay. This technology measures the endogenous production of cAMP, in a non-radioactive luminescence proximity homogenous assay. A biological reaction occurs between streptavidin coated donor beads, biotinylated cAMP and anti-cAMP acceptor beads, bringing the donor and acceptor beads close enough together so that upon excitation a fluorescence signal is produced. On production of endogenous cAMP, competition between the biotinylated cAMP and cellular-derived cAMP causes a reduction in the fluorescent signal. The reduction in signal is proportional to the amount of cAMP being produced, thus it is possible to quantify the amount of cAMP being produced on stimulation with agonist.
Test and reference compounds are prepared at 100× [final] in 100% DMSO, and diluted 1:3 using a Biomek Fx (Beckman Coulter). This is followed by an intermediate dilution to give 5× [final] in assay buffer (HBSS containing 5 mM HEPES, 0.1% (w/v) BSA). 5 μL of 5× [final] test compounds, reference compounds and buffer/DMSO control are then transferred to a 384-well white OptiPlate, containing 20 μL CHO-IP cell suspension (15,000 cells/well, prepared from frozen), and plate is incubated at room temperature for 1 hour. A cAMP standard curve is constructed for each experiment (concentration range of 10000 nM to 0.001 nM, in assay buffer) and 25 μL of each concentration added to the last two columns of the assay plate. The incubation is terminated by the addition of lysis buffer (dH2O; 0.3% (v v^−1) Tween-20) containing 20 units mL^−1 streptavidin coated donor beads and biotinylated cAMP (pre-incubated for 30 minutes) and 20 units mL^−1 anti-cAMP acceptor beads, which are added to the lysis buffer just before addition to the assay plate. The assay plate is then incubated at room temperature in the dark, for 60 minutes with gentle shaking, and read on the Envision plate reader (Perkin Elmer).
The raw data of the reference compounds, test compounds and controls are converted into cAMP concentrations, using the cAMP standard curve, in Graph Pad Prism (Graph Pad Software Inc). EC50 as well as maximal values of the agonist curves are determined using a 4-parameter logistic equation. The % maximum response values of all test compounds are determined using the top of the treprostinil concentration-response curve.

T1 sequence (P43119 whole entry): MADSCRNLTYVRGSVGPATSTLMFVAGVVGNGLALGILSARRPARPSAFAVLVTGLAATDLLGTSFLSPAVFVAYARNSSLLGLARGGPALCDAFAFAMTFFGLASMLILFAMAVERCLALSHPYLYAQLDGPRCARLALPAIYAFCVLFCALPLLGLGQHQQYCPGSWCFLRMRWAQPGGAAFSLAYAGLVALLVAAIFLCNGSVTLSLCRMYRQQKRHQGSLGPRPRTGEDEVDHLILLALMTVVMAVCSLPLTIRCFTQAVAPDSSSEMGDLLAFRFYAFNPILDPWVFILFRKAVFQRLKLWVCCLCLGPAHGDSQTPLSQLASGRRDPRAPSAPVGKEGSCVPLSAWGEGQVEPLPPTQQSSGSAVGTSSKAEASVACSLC

EC50 [nM]	Compound
0.3	CCC1CCc2nc(-c3ccc(C)cc3)c(-c3ccc(C)cc3)nc2N1CCCCCCC(=O)O (single isomer, unassigned) [2.3(ii), (R)-7-(6-Ethyl-2,3-di-p-tolyl-7,8-dihydropyrido[2,3-b]pyrazin-5(6H)-yl)heptanoic acid or (S)-7-(6-Ethyl-2,3-di-p-tolyl-7,8-dihydropyrido[2,3-b]pyrazin-5(6H)-yl)heptanoic acid]
0.3	COC1(C)CCN(CCCCCCC(=O)O)c2nc(-c3ccc(C)cc3)c(-c3ccc(C)cc3)nc21 (racemic) [Example 15, rac-7-(8-Methoxy-8-methyl-2,3-di-p-tolyl-7,8-dihydropyrido[2,3-b]pyrazin-5(6H)-yl)heptanoic acid]
4.7	CONC(=O)CCCCCCN1CCCc2nc(-c3ccc(C)cc3)c(-c3ccc(C)cc3)nc21 [Example 12.6, 7-(2,3-Di-p-tolyl-7,8-dihydropyrido[2,3-b]pyrazin-5(6H)-yl)-N-methoxyheptanamide]
28.6	Cc1ccc(-c2nc3c(nc2-c2ccc(C)cc2)N(CCCCCCC(=O)NS(C)(=O)=O)CCC3O)cc1 (single isomer, unassigned) [Example 13.1, (R or S)-7-(8-Hydroxy-2,3-di-p-tolyl-7,8-dihydropyrido[3,2-b]pyrazin-5(6H)-yl)-N-(methylsulfonyl)heptanamide]
13.6	CO[C@@H]1CCN(CCCCCCC(=O)O)c2nc(-c3ccc(C)cc3)c(-c3ccc(C)cc3)nc21 (single isomer, unassigned) [Example 3.2, (R)-7-(8-methoxy-2,3-di-p-tolyl-7,8-dihydropyrido[2,3-b]pyrazin-5(6H)-yl)heptanoic acid or (S)-7-(8-methoxy-2,3-di-p-tolyl-7,8-dihydropyrido[2,3-b]pyrazin-5(6H)-yl)heptanoic acid]
4.8	CCC1CCc2nc(-c3ccc(C)cc3)c(-c3ccc(C)cc3)nc2N1CCCCCCC(=O)O (single isomer, unassigned) [2.3(i), (R)-7-(6-Ethyl-2,3-di-p-tolyl-7,8-dihydropyrido[2,3-b]pyrazin-5(6H)-yl)heptanoic acid or (S)-7-(6-Ethyl-2,3-di-p-tolyl-7,8-dihydropyrido[2,3-b]pyrazin-5(6H)-yl)heptanoic acid]
45	Cc1ccc(-c2nc3c(nc2-c2ccc(C)cc2)N(CCCCCCC(=O)NC(C)C)CCC3)cc1 [Example 12.3, 7-(2,3-Di-p-tolyl-7,8-dihydropyrido[2,3-b]pyrazin-5(6H)-yl)-N-isopropylheptanamide]
40.2	Cc1ccc(-c2nc3c(nc2-c2ccc(C)cc2)N(CCCCCCC(=O)NCc2ccccc2)CCC3)cc1 [Example 12.1, N-Benzyl-7-(2,3-di-p-tolyl-7,8-dihydropyrido[2,3-b]pyrazin-5(6H)-yl)heptanamide]
0.4	Cc1ccc(-c2nc3c(nc2-c2ccc(F)cc2)CCCN3CCCCCCC(=O)O)cc1 [Example 2.8, 7-(2-(4-Fluorophenyl)-3-p-tolyl-7,8-dihydropyrido[2,3-b]pyrazin-5(6H)-yl)heptanoic acid]
0.7	Cc1ccc(-c2nc3c(nc2-c2ccc(C)cc2)N(CCCCCCC(=O)NS(C)(=O)=O)CCC3)cc1 [Example 13.4, 7-(2,3-Di-p-tolyl-7,8-dihydropyrido[2,3-b]pyrazin-5(6H)-yl)-N-(methylsulfonyl) heptanamide]
0.6	Cc1ccc(-c2nc3c(nc2-c2ccc(C)cc2)N(CCCCCCCCC(=O)O)CCC3)cc1 [Example 9.1, 9-(2,3-Di-p-tolyl-7,8-dihydropyrido[2,3-b]pyrazin-5(6H)-yl)nonanoic acid]
0.3	Cc1ccc(-c2nc3c(nc2-c2ccc(C)cc2)N(CCCCCCC(=O)O)C(=O)C(O)C3)cc1 (single isomer, unassigned) [11(i), (R)-7-(7-hydroxy-6-oxo-2,3-di-p-tolyl-7,8-dihydropyrido[2,3-b]pyrazin-5(6H)-yl) heptanoic acid or (S)-7-(7-hydroxy-6-oxo-2,3-di-p-tolyl-7,8-dihydropyrido[2,3-b]pyrazin-5(6H)-yl) heptanoic acid]
0.5	Cc1ccc(-c2nc3c(nc2-c2ccc(C)cc2)N(CCCCCCC(=O)O)C(=O)C(O)C3)cc1 (single isomer, unassigned) [11(ii), (R)-7-(7-hydroxy-6-oxo-2,3-di-p-tolyl-7,8-dihydropyrido[2,3-b]pyrazin-5(6H)-yl) heptanoic acid or (S)-7-(7-hydroxy-6-oxo-2,3-di-p-tolyl-7,8-dihydropyrido[2,3-b]pyrazin-5(6H)-yl) heptanoic acid]
2.4	Cc1ccc(-c2nc3c(nc2-c2ccccc2)CCC(C)N3CCCCCCC(=O)O)cc1 (stereo not shown) [Example 2.4, 7-(6-Methyl-2-phenyl-3-p-tolyl-7,8-dihydropyrido[2,3-b]pyrazin-5(6H)-yl)heptanoic acid]
5	Cc1ccc(-c2nc3c(nc2-c2ccc(C)cc2)N(CCCCCCC(=O)NS(=O)(=O)C(C)C)CCC3)cc1 [Example 13.5, 7-(2,3-Di-p-tolyl-7,8-dihydropyrido[2,3-b]pyrazin-5(6H)-yl)-N-(isopropylsulfonyl) heptanamide]
1.8	Cc1ccc(-c2nc3c(nc2-c2ccc(C)cc2)N(CCCCC(O)CC(=O)O)CCC3)cc1 (single isomer, unassigned) [Example 17b, (R)-7-(2,3-Di-p-tolyl-7,8-dihydropyrido[2,3-b]pyrazin-5(6H)-yl)-3-hydroxyheptanoic acid or (S)-7-(2,3-Di-p-tolyl-7,8-dihydropyrido[2,3-b]pyrazin-5(6H)-yl)-3-hydroxyheptanoic acid]
7	Cc1ccc(-c2nc3c(nc2-c2ccc(C)cc2)N(CCCCCCCCC(=O)O)C(=O)CC3)cc1 [Example 8, 9-(6-Oxo-2,3-di-p-tolyl-7,8-dihydropyrido[2,3-b]pyrazin-5(6H)-yl)nonanoic acid]
2.3	O=C(O)CCCCCCN1C(=O)CCc2nc(-c3ccc(Cl)cc3)c(-c3ccc(Cl)cc3)nc21 [Example 7.1, 7-(2,3-Bis(4-chlorophenyl)-6-oxo-7,8-dihydropyrido[2,3-b]pyrazin-5(6H)-yl)heptanoic acid]
0.2	Cc1ccc(-c2nc3c(nc2-c2ccc(C)nc2)CCCN3CCCCCCC(=O)O)cc1 [Example 6, 7-(2-(6-Methylpyridin-3-yl)-3-p-tolyl-7,8-dihydropyrido[2,3-b]pyrazin-5(6H)-yl)heptanoic acid]
0.9	(R)-6-(2,3-di-p-tolyl-5,6,7,8-tetrahydropyrido[2,3-b]pyrazin-6-yl)hexanoic acid or (S)-6-(2,3-di-p-tolyl-5,6,7,8-tetrahydropyrido[2,3-b]pyrazin-6-yl)hexanoic acid [1(i)]
6.4	Cc1ccc(-c2nc3c(nc2-c2ccc(C)cc2)N(CCCCCCC(=O)NS(=O)(=O)c2ccccc2)CCC3)cc1 [Example 12.2, 7-(2,3-Di-p-tolyl-7,8-dihydropyrido[2,3-b]pyrazin-5(6H)-yl)-N-(phenylsulfonyl) heptanamide]
5.9	Cc1ccc(-c2nc3c(nc2-c2ccc(C)cc2)N(CCCCCCC(=O)NS(=O)(=O)Cc2ccccc2)CCC3)cc1 [Example 12, N-(Benzylsulfonyl)-7-(2,3-di-p-tolyl-7,8-dihydropyrido[2,3-b]pyrazin-5(6H)-yl)heptanamide]
1.2	Cc1ccc(-c2nc3c(nc2-c2ccc(Cl)cc2)CCC(=O)N3CCCCCCC(=O)O)cc1 [Example 7.2, 7-(2-(4-Chlorophenyl)-6-oxo-3-p-tolyl-7,8-dihydropyrido[2,3-b]pyrazin-5(6H)-yl)heptanoic acid]
0.3	Cc1ccc(-c2nc3c(nc2-c2ccc(C)cc2)N(CCCCCCC(=O)O)C(=O)C(C(C)(C)O)C3)cc1 (single isomer, unassigned) [1.1(i), (R)-7-(7-(2-hydroxypropan-2-yl)-6-oxo-2,3-di-p-tolyl-7,8-dihydropyrido[2,3-b]pyrazin-5(6H)-yl)heptanoic acid or (S)-7-(7-(2-hydroxypropan-2-yl)-6-oxo-2,3-di-p-tolyl-7,8-dihydropyrido[2,3-b]pyrazin-5(6H)-yl)heptanoic acid]
0.3	Cc1ccc(-c2nc3c(nc2-c2ccc(C)cc2)N(CCCCCCC(=O)O)C(=O)C(C(C)(C)O)C3)cc1 (single isomer, unassigned) [Example 1.1, rac-7-(7-(2-Hydroxypropan-2-yl)-6-oxo-2,3-di-p-tolyl-7,8-dihydropyrido[2,3-b]pyrazin-5(6H)-yl)heptanoic acid]
